In ChEMBL document CHEMBL1833869, “Effect of lipophilicity modulation on inhibition of human rhinovirus capsid binders” (Bioorg Med Chem Lett, 2011):
≈ marks a conversion by molar mass, not a printed value. One block for each molecule: values may come before it.

What was measured:
rhinovirus A16 = assay: Antiviral activity against Human rhinovirus 16 infected in human HeLa Ohio cells assessed as inhibition of virus-induced cytopathic effect by CellTiter-Glo assay; type: functional, organism-based; settings: Rhinovirus A
[1] = Lipophilicity, log D of the compound; type: physicochemical; settings: octanol/water
[2] = Oral bioavailability in rat; type: ADME, organism-based; settings: in vivo
[3] = molecular target: T1, Nuclear receptor subfamily 1 group I member 2 (Homo sapiens, UniProt O75469); assay: Activation of human PXR expressed in african green monkey CV1 cells transfected with pSG5-hPXRDATG and (ER6)3-tk-CAT reporter; type: cell-based, CV-1
T1 sequence (O75469 whole entry): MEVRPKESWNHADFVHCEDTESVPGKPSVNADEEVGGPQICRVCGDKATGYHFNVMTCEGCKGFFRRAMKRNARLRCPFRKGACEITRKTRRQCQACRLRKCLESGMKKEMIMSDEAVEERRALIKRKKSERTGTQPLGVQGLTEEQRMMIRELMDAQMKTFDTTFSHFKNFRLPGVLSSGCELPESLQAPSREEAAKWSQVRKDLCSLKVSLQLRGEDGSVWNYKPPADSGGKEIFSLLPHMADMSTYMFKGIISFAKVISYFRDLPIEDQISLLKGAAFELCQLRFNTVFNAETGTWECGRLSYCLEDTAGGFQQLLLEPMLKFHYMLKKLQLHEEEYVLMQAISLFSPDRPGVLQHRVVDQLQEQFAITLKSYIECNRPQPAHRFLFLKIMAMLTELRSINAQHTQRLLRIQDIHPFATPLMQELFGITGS

Cytochrome P450 2D6 [4] = molecular target: T2, Cytochrome P450 2D6 (Homo sapiens, UniProt P10635); assay: Time dependent inhibition of CYP2D6; type: ADME
[5] = Half life in rat at 2 mg/kg, iv; type: ADME, organism-based; design: dose 2 mg/kg, route intravenous; settings: in vivo
Cytochrome P450 2D6 [6] = molecular target: T2, Cytochrome P450 2D6; assay: Inhibition of CYP2D6; type: ADME
[7] = Clearance in rat at 2 mg/kg, iv; type: ADME, organism-based; design: dose 2 mg/kg, route intravenous; settings: in vivo
Cytochrome P450 2C19 [8] = molecular target: T3, Cytochrome P450 2C19 (Homo sapiens, UniProt P33261); assay: Time dependent inhibition of CYP2C19; type: ADME
[9] = Unbound fraction in rat plasma; type: ADME, cell-free
Cytochrome P450 3A4 [10] = molecular target: T4, Cytochrome P450 3A4 (Homo sapiens, UniProt P08684); assay: Time dependent inhibition of CYP3A4; type: ADME
Cytochrome P450 2C9 [11] = molecular target: T5, Cytochrome P450 2C9 (Homo sapiens, UniProt P11712); assay: Inhibition of CYP2C9; type: ADME
[12] = Apparent permeability of compound by PAMPA; type: ADME
Cytochrome P450 1A2 [13] = molecular target: T6, Cytochrome P450 1A2 (Homo sapiens, UniProt P05177); assay: Inhibition of CYP1A2; type: ADME
T6 sequence (P05177 whole entry): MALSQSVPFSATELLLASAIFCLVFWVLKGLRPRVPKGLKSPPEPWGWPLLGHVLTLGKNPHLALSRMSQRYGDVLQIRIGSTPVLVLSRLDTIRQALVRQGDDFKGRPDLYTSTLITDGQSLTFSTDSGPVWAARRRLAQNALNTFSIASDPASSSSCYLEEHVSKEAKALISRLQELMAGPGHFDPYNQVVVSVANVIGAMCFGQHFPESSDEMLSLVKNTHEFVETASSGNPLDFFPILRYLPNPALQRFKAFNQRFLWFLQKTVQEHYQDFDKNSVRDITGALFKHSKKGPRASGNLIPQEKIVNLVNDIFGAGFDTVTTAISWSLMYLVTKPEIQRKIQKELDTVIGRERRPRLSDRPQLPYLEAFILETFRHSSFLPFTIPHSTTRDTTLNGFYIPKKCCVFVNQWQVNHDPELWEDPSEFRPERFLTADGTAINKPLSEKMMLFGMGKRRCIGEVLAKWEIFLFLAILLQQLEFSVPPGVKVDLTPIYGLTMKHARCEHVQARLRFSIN

[14] = Unbound fraction in human plasma; type: ADME, cell-free
[15] = Intrinsic clearance in human microsomes after 45 mins by HPLC method; type: ADME, Microsome
Cytochrome P450 1A2 [16] = molecular target: T6, Cytochrome P450 1A2; assay: Time dependent inhibition of CYP1A2; type: ADME
[17] = Chemical stability of compound assessed as half life; type: physicochemical
Cytochrome P450 2C19 [18] = molecular target: T3, Cytochrome P450 2C19; assay: Inhibition of CYP2C19; type: ADME
[19] = Volume of distribution at steady state in rat at 2 mg/kg, iv; type: ADME, organism-based; design: dose 2 mg/kg, route intravenous; settings: in vivo, read-out: Vdss
Cytochrome P450 3A4 [20] = molecular target: T4, Cytochrome P450 3A4; assay: Inhibition of CYP3A4; type: ADME
Cytochrome P450 2C9 [21] = molecular target: T5, Cytochrome P450 2C9; assay: Time dependent inhibition of CYP2C9; type: ADME
PXR (NR1I2) = molecular target: T7, PXR (NR1I2) (Homo sapiens, UniProt O75469); assay: Activation of human PXR expressed in african green monkey CV1 cells transfected with pSG5-hPXRDATG and (ER6)3-tk-CAT reporter assessed as maximal activation relative to control; type: cell-based, CV-1
T7 sequence (O75469 whole entry): T1 sequence (O75469 whole entry)

[22] = Intrinsic clearance in Sprague-Dawley rat hepatocytes assessed per 10^6 cells preincubated for 5 mins measured after 90 mins; type: ADME, cell-based, Liver, Hepatocyte
rhinovirus A2 = assay: Antiviral activity against Human rhinovirus 2 infected in human HeLa Ohio cells assessed as inhibition of virus-induced cytopathic effect by CellTiter-Glo assay; type: functional, organism-based; settings: Rhinovirus A
[23] = Aqueous equilibrium solubility of the compound by shake-flask technique; type: physicochemical; settings: buffer
rhinovirus B14 = assay: Antiviral activity against Human rhinovirus 14 infected in human HeLa Ohio cells assessed as inhibition of virus-induced cytopathic effect by CellTiter-Glo assay; type: functional, organism-based; settings: Rhinovirus B

T2 sequence (P10635 whole entry): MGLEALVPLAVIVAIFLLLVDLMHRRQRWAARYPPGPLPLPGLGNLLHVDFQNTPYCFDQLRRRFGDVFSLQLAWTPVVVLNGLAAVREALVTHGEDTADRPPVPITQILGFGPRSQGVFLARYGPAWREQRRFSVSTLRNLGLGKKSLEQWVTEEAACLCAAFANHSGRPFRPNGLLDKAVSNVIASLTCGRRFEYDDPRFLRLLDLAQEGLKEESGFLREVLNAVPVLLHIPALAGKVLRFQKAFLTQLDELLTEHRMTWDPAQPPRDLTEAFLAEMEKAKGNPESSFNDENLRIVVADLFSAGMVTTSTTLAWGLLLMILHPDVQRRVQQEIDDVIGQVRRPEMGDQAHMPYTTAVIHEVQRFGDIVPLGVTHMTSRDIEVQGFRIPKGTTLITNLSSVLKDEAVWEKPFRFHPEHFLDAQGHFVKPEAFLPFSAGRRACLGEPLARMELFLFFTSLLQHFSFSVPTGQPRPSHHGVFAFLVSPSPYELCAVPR
T3 sequence (P33261 whole entry): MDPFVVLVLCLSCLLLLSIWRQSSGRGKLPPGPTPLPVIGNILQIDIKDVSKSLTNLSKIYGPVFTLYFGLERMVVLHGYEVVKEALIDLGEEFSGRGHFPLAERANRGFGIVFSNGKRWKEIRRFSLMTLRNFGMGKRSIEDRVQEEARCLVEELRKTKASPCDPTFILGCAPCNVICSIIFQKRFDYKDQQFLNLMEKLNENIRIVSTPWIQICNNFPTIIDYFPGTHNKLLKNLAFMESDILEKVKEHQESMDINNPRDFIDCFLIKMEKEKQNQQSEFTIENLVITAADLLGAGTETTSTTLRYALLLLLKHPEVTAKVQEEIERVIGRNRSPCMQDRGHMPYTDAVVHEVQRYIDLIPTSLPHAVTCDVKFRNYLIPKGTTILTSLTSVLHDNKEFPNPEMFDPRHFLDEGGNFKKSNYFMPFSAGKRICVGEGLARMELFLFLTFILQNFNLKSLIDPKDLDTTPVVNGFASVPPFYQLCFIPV
T5 sequence (P11712 whole entry): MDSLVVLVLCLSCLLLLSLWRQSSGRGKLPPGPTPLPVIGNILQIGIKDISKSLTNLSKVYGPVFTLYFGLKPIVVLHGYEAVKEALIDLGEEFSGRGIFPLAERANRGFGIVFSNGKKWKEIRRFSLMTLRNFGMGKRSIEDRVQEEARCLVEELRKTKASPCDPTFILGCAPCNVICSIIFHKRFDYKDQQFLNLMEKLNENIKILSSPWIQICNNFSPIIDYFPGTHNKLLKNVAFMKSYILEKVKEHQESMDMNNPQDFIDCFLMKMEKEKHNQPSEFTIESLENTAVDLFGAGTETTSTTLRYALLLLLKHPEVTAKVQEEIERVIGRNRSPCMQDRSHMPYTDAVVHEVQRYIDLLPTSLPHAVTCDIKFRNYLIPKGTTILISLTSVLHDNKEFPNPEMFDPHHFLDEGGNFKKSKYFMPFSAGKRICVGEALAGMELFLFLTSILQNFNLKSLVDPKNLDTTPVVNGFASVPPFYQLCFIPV
T4 sequence (P08684 whole entry): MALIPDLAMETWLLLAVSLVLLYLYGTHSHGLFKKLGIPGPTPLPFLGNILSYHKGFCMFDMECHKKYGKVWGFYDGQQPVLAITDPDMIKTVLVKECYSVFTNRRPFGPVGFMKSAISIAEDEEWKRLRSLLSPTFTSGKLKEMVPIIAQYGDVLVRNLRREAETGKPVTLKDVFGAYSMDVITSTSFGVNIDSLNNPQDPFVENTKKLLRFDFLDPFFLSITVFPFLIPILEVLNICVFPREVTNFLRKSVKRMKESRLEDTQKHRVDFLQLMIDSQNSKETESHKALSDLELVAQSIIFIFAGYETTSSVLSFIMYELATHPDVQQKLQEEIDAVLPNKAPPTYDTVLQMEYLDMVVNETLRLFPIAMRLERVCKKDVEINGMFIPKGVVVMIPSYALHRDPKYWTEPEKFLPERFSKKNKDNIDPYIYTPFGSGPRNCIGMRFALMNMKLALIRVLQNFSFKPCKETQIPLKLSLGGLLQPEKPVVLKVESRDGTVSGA

Structure (SMILES): CCOC(=O)c1ccc(CCN2CCN(c3ccc(C)nn3)CC2)cc1
IC50 (rhinovirus A16): 79.4 nM

Structure (SMILES): CCOC(=O)c1ccc(COC2CCN(c3ccc(C)nn3)CC2)cc1
IC50 (rhinovirus A16): 25.1 nM

Structure (SMILES): CCOC(=O)c1ccc(OCCC2CCN(c3ccc(C)nn3)CC2)nc1
IC50 (rhinovirus A16): 63.1 nM

Structure (SMILES): CCOC(=O)c1ccc(OCCC2CN(c3ccc(C)nn3)C2)cc1
IC50 (rhinovirus A16): 31.6 nM

Structure (SMILES): CCOc1nc2ccc(OCCC3CCN(c4ccc(C)nn4)CC3)cn2n1
IC50 (rhinovirus A16): 1580 nM

logD [1]: 2.6
bioavailability [2]: 60%
EC50 [3]: 31600 nM
IC50 (Cytochrome P450 2D6 [4]): > 50100 nM
half-life [5]: 2.2 h
IC50 (Cytochrome P450 2D6 [6]): > 10000 nM
clearance [7]: 9 mL/min/kg
IC50 (Cytochrome P450 2C19 [8]): > 50100 nM
fraction unbound [9]: 0.05
IC50 (Cytochrome P450 3A4 [10]): > 50100 nM
IC50 (Cytochrome P450 2C9 [11]): > 10000 nM
Papp [12]: 47 ×10⁻⁶ cm/s
IC50 (Cytochrome P450 1A2 [13]): > 10000 nM
fraction unbound [14]: 0.06
microsomal CLint [15]: 26 µL/min/mg
IC50 (Cytochrome P450 1A2 [16]): > 50100 nM
half-life [17]: > 200 h
IC50 (Cytochrome P450 2C19 [18]): > 10000 nM
Vd [19]: 1.5 L/kg
IC50 (Cytochrome P450 3A4 [20]): > 10000 nM
IC50 (Cytochrome P450 2C9 [21]): > 50100 nM
Emax (PXR (NR1I2)): 19%
hepatocyte CLint [22]: 5 µL/min/1e6 cells
solubility thermodynamic [23]: 125 µM (≈ 42.2 µg/mL)
Structure (SMILES): Cc1ccc(N2CC(COc3ccc(-c4noc(C)n4)cc3)C2)nn1
IC50 (rhinovirus A16): 79.4 nM
IC50 (rhinovirus A2): 50.1 nM

logD [1]: > 4.5
EC50 [3]: 251 nM
IC50 (Cytochrome P450 2D6 [4]): > 50100 nM
IC50 (Cytochrome P450 2D6 [6]): 6310 nM
IC50 (Cytochrome P450 2C19 [8]): > 50100 nM
fraction unbound [9]: < 0.002
IC50 (Cytochrome P450 2C9 [11]): > 10000 nM
IC50 (Cytochrome P450 1A2 [13]): > 10000 nM
fraction unbound [14]: 0.0013
microsomal CLint [15]: 22 µL/min/mg
IC50 (Cytochrome P450 1A2 [16]): > 50100 nM
IC50 (Cytochrome P450 2C19 [18]): > 10000 nM
IC50 (Cytochrome P450 2C9 [21]): > 50100 nM
Emax (PXR (NR1I2)): 88%
hepatocyte CLint [22]: 20 µL/min/1e6 cells
solubility thermodynamic [23]: < 2 µM
Structure (SMILES): Cc1cc(CCCOc2c(C)cc(-c3noc(C(F)(F)F)n3)cc2C)on1 [PLECONARIL]
IC50 (rhinovirus A16): 1000 nM
IC50 (rhinovirus B14): < 100 nM
IC50 (rhinovirus A2): 100 nM

Structure (SMILES): CCOC(=O)c1ccc(COCC2CCN(c3ccc(C)nn3)CC2)cc1
IC50 (rhinovirus A16): 100 nM

Structure (SMILES): Cc1ccc(N2CCC(CCOc3ccc([S+](C)[O-])cc3)CC2)nn1 (stereo not drawn)
IC50 (rhinovirus A16): > 31600 nM

Structure (SMILES): CCOC(=O)c1ccc(OCCC2CCN(c3ccc(C)nn3)CC2)cc1 [PIRODAVIR]
IC50 (rhinovirus A16): 63.1 nM
IC50 (rhinovirus B14): < 100 nM
IC50 (rhinovirus A2): < 100 nM

Structure (SMILES): Cc1ccc(N2CCC(CCOc3ccc(S(C)(=O)=O)cc3)CC2)nn1
IC50 (rhinovirus A16): 2000 nM

Structure (SMILES): CCOC(=O)c1ccc(OCCC2(C#N)CCN(c3ccc(C)nn3)CC2)cc1
IC50 (rhinovirus A16): 158 nM

Structure (SMILES): CCOC(=O)c1ccc(OCCC2CCN(c3ccc(C)nn3)CC2)cn1
IC50 (rhinovirus A16): 2510 nM

Structure (SMILES): CCOc1nnc2cc(OCCC3CCN(c4ccc(C)nn4)CC3)ccn12
IC50 (rhinovirus A16): 1580 nM

Structure (SMILES): CCOC(=O)c1ccc(OCC2CCN(c3ccc(C)nn3)C2)cc1 (stereo not drawn)
IC50 (rhinovirus A16): 20 nM

Structure (SMILES): CCOC(=O)c1ccc(COC2CN(c3ccc(C)nn3)C2)cc1
IC50 (rhinovirus A16): 63.1 nM

Structure (SMILES): CCOC(=O)c1ccc(OCC2CN(c3ccc(C)nn3)C2)cc1
IC50 (rhinovirus A16): 63.1 nM

Structure (SMILES): CCOC(=O)c1ccc(OCCC2CN(c3ccc(C)nn3)CCO2)cc1 (stereo not drawn)
IC50 (rhinovirus A16): 63.1 nM
